Experimental data as given in PubChem BioAssay (NCI).
“And” between values parts separate entries of the source, which are not always exact repeats. Identical values can stand only once.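 Step 1: Grow cells in 96-well plates. Step 2: Expose to compound for 48 hours at 5 concentrations. Step 3: Interpolate endpoints linearly; if unreached, use highest concentration. GI50 = concentration required for 50% inhibition of growth. The concentration for full growth arrest is given as TGI.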

Key:
Assay in all cases: inhibition of tumour cell growth, NCI panel, 48 h
TK-10 renal = tested on: TK-10 renal
786-0 renal = tested on: 786-0 renal
OVCAR-5 ovarian = tested on: OVCAR-5 ovarian
HCT-15 colon = tested on: HCT-15 colon
SF-295 CNS = tested on: SF-295 CNS
MOLT-4 leukemia = tested on: MOLT-4 leukemia
HT29 colon = tested on: HT29 colon
UACC-62 melanoma = tested on: UACC-62 melanoma
SK-MEL-2 melanoma = tested on: SK-MEL-2 melanoma
HOP-92 NSCLC = tested on: HOP-92 NSCLC

SMILES | TGI (TK-10 renal) | TGI (786-0 renal) | TGI (OVCAR-5 ovarian) | TGI (HCT-15 colon) | TGI (SF-295 CNS) | TGI (MOLT-4 leukemia) | TGI (HT29 colon) | TGI (UACC-62 melanoma) | TGI (SK-MEL-2 melanoma) | TGI (HOP-92 NSCLC) | GI50 (HCT-15 colon) | GI50 (TK-10 renal) [µM] | GI50 (OVCAR-5 ovarian) [nM] | GI50 (SF-295 CNS) [nM] | GI50 (MOLT-4 leukemia) [µM] | GI50 (HT29 colon) [nM] | GI50 (UACC-62 melanoma) [nM] | GI50 (SK-MEL-2 melanoma) [µM] | GI50 (HOP-92 NSCLC) [nM]
COc1cc2ccc3c4ccccc4cnc3c2cc1OC | > 100 µM | > 100 µM | > 100 µM | > 100 µM | > 100 µM | > 100 µM | > 100 µM | > 100 µM | > 100 µM | > 100 µM |  |  |  |  |  |  |  |  | 
COc1nc(N=P(c2ccccc2)(c2ccccc2)c2ccccc2)cc(=O)n1C | > 100 µM | > 100 µM | > 100 µM | > 100 µM | > 100 µM | > 100 µM | > 100 µM | > 100 µM | > 100 µM | > 100 µM |  |  |  |  |  |  |  |  | 
CC(C)N(C(=O)C12C3C4C1C1C2C3C41C#N)C(C)C (stereo not given) | > 100 µM | > 100 µM | > 100 µM | > 100 µM | > 100 µM | > 100 µM | > 100 µM | > 100 µM | > 100 µM | > 100 µM |  |  |  |  |  |  |  |  | 
O=c1[nH]/c(=C/c2ccc3c(c2)OCO3)c(=O)[nH]/c1=C/c1ccc2c(c1)OCO2 | > 10 µM | > 10 µM | > 10 µM | > 10 µM | > 10 µM | > 10 µM | > 10 µM | > 10 µM | > 10 µM | > 10 µM |  |  |  |  |  |  |  |  | 
O=C1N/C(=N\N=C\c2ccccc2)C(c2ccccc2)O1 (stereo not given) | > 100 µM | > 100 µM | > 100 µM | > 100 µM | > 100 µM | > 100 µM | > 100 µM | > 100 µM | > 100 µM | > 100 µM |  |  |  |  |  |  |  |  | 
O=C(Cc1ccccc1)NN1C(=O)C(Cl)C1c1ccccc1Cl (stereo not given) | > 100 µM | > 100 µM | > 100 µM | > 100 µM | > 100 µM | 62.8 µM | > 100 µM | > 100 µM | > 100 µM | > 100 µM |  |  |  |  |  |  |  |  | 
CCN(CC)CCCNc1c2c(Cl)cc(Cl)cc2nc2nc(=O)[nH]c(C)c12 | > 100 µM | 38.1 µM | 50.6 µM | > 100 µM | > 100 µM | 54.3 µM | 36.4 µM | > 100 µM | > 100 µM | > 100 µM |  |  |  |  |  |  |  |  | 
CC1=CC(=O)CC2(C)CCC(C(C)CC(=O)CC(C)C)CC12OO (stereo not given) | 32.8 µM and 34.1 µM | 22.7 µM and 26 µM | 35.5 µM and 47.5 µM | 30.1 µM and > 100 µM | 31 µM and 30 µM | 40.2 µM and 35.3 µM | 43.2 µM and 31.1 µM | 31.9 µM and 35.2 µM | 37.9 µM and 31.9 µM | 31 µM and 37 µM | 16.5 µM and 35.3 µM |  |  |  |  |  |  |  | 
NS(=O)(=O)c1ccc(NC(=O)N/N=C/c2ccccc2O)cc1 | > 100 µM | > 100 µM | > 100 µM | > 100 µM | > 100 µM | > 100 µM | > 100 µM | > 100 µM | > 100 µM | > 100 µM |  |  |  |  |  |  |  |  | 
COC1(CC[C@@H](C)COC2OC(CO)C(O)C(O)C2O)O[C@H]2C[C@H]3[C@@H]4CC=C5C[C@@H](OC6OC(CO)C(OC7OC(C)C(O)C(O)C7O)C(O)C6OC6OC(C)C(O)C(O)C6O)CC[C@]5(C)[C@H]4CC[C@]3(C)[C@H]2[C@@H]1C (stereo not given in full) | 23.1 µM | 4.02 µM | 10.5 µM | 3.66 µM | 5.22 µM | > 26.1 µM | 4.3 µM | 16 µM | 8.5 µM | 7.97 µM | 1.72 µM | 8.04 | 1910 | 2020 | 5.36 | 1890 | 2310 | 3.26 | 2320
O=C1CN(c2ccccc2)Cc2nc(Cl)ccc2N1 | > 100 µM | > 100 µM | > 100 µM | > 100 µM | > 100 µM | > 100 µM | > 100 µM | > 100 µM | > 100 µM | > 100 µM |  |  |  |  |  |  |  |  | 
CC(=O)CCCCn1c(=O)c2c(nc(Br)n2C)n(C)c1=O | > 100 µM | > 100 µM | > 100 µM | > 100 µM | > 100 µM | > 100 µM | > 100 µM | > 100 µM | > 100 µM | 31.7 µM |  |  |  |  |  |  |  |  | 
